In PubChem BioAssay AID489032 (Sanford-Burnham Center for Chemical Genomics, 2010):
Activity calls are given as the source filed them. How the calls were made is not given here.

Test system: UPR adaptive arm reporter cells, luciferase luminescence
Experiment: adaptive unfolded protein response reporter activation – cell-based, luciferase luminescence, dose response (AID 489032)

Structure (SMILES) | EC50
Cc1ccc2nc(-c3ccc(NC(=S)NC4CC(C)(C)NC(C)(C)C4)cc3)sc2c1 | > 80 µM (inactive)
O=C1NC(=O)N(Cc2ccccc2)C(=O)/C1=C\c1ccco1 | > 80 µM (inactive)
NCCc1c(-c2ccccc2)n(-c2ccccc2)c2ccccc12 | > 80 µM (inactive)
O=C(C[C@H]1C[C@H](C(=O)N2CCCCC2)[C@@]2(CCc3ccccc3)c3[nH]c4ccc(Cl)cc4c3CCN2C1=O)NCCC1=CCCCC1 | > 80 µM (inactive)
CCOC(=O)c1c(NC(=O)Cc2cccs2)sc(C(=O)NC2CCCCC2)c1C | > 80 µM (inactive)
CCC(C)(C)C1CCC2(CC1)NC(=O)N(CC(=O)N1CCN(S(=O)(=O)c3cc(C)ccc3C)CC1)C2=O (stereo not drawn) | 27.2 µM (inactive)
C#CCn1c(=NC(=O)c2ccc(Br)s2)sc2cccc(OC)c21 | > 80 µM (inactive)
Cc1ccc(-n2nc3c(N4CCC(C(=O)NCCc5cccs5)CC4)nnc(C)c3c2C)cc1 | > 80 µM (inactive)
COC(=O)c1c(NC(=O)CC2Nc3ccccc3NC2=O)sc(C)c1C (stereo not drawn) | > 80 µM (inactive)
COc1ccc2nc(/C(C#N)=C\c3ccc(Oc4ccc([N+](=O)[O-])cn4)cc3)[nH]c2c1 | > 80 µM (inactive)
COc1ccc(C(=O)Oc2cc3c4c(c2)C(C)=CC(C)(C)N4C(=O)C3=O)cc1OC | 25.4 µM (inactive)
COc1ccc(NC(=O)c2cc3c(=O)n(C)c4ccccc4c3n2C)cc1Cl | > 80 µM (inactive)
C#CCn1c(=NC(=O)c2ccc(S(=O)(=O)N3CCc4ccccc4C3)cc2)sc2cc(S(N)(=O)=O)ccc21 | > 80 µM (inactive)
COc1ccc(-c2csc3nc(-c4ccc(C)cc4)oc(=O)c23)cc1OC | > 80 µM (inactive)
COc1cc(/C=C(\C#N)c2nc3ccccc3[nH]2)cc(Br)c1OCc1ccc(F)cc1 | > 80 µM (inactive)
O=c1cc(C(Cl)(Cl)Cl)oc2c1ccc1ccccc12 | 18.1 µM
CCOc1ccc(Cn2c3ccc(OC)cc3c3nc4ccccc4nc32)cc1OC | > 80 µM (inactive)
COCc1cc(C)nc(OCC(=O)N/N=C/c2ccc(-c3cc([N+](=O)[O-])ccc3Cl)o2)c1C#N | 13.5 µM
O=C1NC(=O)C(=Cc2cn(CCOc3ccc4c(c3)OCO4)c3ccccc23)C(=O)N1 | 31.2 µM (inactive)
CCc1nc(C)cn1S(=O)(=O)c1cc([N+](=O)[O-])ccc1Cl | > 80 µM (inactive)
Cc1ccc(C)c(N=Cc2c(O)c3ccccc3oc2=O)c1 | 37.1 µM (inactive)

Structure (SMILES) | EC50
NCCOc1ccc(C23CC4CC(CC(C4)C2)C3)cc1 | > 80 µM (inactive)
COc1ccc(C(=O)Nc2cccc(/C=C/c3nc4ccccc4c(=O)[nH]3)c2)cc1 | > 80 µM (inactive)
O=C(Nc1ccc(-c2nc3cc(NC(=O)c4cccs4)ccc3o2)cc1)c1cccs1 | 4.31 µM
C[C@H]1[C@H](C)CC[C@]2(C(=O)O)CC[C@]3(C)C(=CC[C@@H]4[C@@]5(C)C[C@@H](O)[C@H](O)C(C)(C)[C@@H]5CC[C@]43C)[C@H]12 | > 80 µM (inactive)
COc1ccc(OC)c(NC(=O)c2oc3ccccc3c2NC(=O)C2CC2)c1 | > 80 µM (inactive)
N#CCC(=O)N/N=C/c1cn(Cc2ccc3ccccc3c2)c2ccccc12 | 71 µM (inactive)
CCN=C1S/C(=C\c2cn(CC(=O)NCc3ccco3)c3ccccc23)C(=O)N1CC | > 80 µM (inactive)
CC1CCc2cc(F)ccc2N1C(=O)CSc1nnc2c(n1)[nH]c1ccc(F)cc12 (stereo not drawn) | > 80 µM (inactive)
Cc1cc(NC(=O)CSc2ccc(-c3nc4cc(C)c(C)cc4[nH]3)cn2)no1 | > 80 µM (inactive)
Cc1ccc2nc(N(CCCN(C)C)C(=O)c3ccc(S(=O)(=O)N4CCc5ccccc5C4)cc3)sc2c1 | > 80 µM (inactive)
OC(CNCC1CCCO1)Cn1c2ccc(Cl)cc2c2cc(Cl)ccc21 (stereo not drawn) | > 80 µM (inactive)
O=C(COC(=O)c1ccc2[nH]c3c(c2c1)CCCC3)Nc1ccccc1Cl | > 80 µM (inactive)
Cc1ccc(NC(=O)c2c(C)nc3sc(C(=O)NC4CCCC4)c(N)c3c2-c2ccco2)c(C)c1 | 48.4 µM (inactive)
CCc1ccc(N2C(=O)NC(=O)/C(=C\c3cccn3CCOc3ccc(C(C)C)cc3)C2=O)cc1 | > 80 µM (inactive)
CC1CCC(C(C)C)C(OC(=O)Cn2c(-c3ccc(Br)cc3)[n+](C)c3ccccc32)C1 (stereo not drawn) | > 80 µM (inactive)
Oc1cc(-c2ccc(N3CCCCC3)nc2)cc2cccnc12 | > 80 µM (inactive)
COc1c(Cl)cc(Cl)cc1/C=N/NC(=O)c1nnn(-c2nonc2N)c1CN1CCC(C)CC1 | 50 µM (inactive)
O=c1[nH]c(-c2ccc(-c3cccc(Cl)c3)o2)nc2ccccc12 | 13.7 µM
COc1cc(/C=C(/C#N)c2nc3ccccc3[nH]2)ccc1OCC(=O)Nc1ccccc1C | > 80 µM (inactive)
N=c1n(CC(=O)c2ccc([N+](=O)[O-])cc2)c2ccccc2n1Cc1ccc(Cl)cc1 | > 80 µM (inactive)
CCCCNc1c(-c2ccc(SC(C)CC)cc2)nc2cnccn12 (stereo not drawn) | > 80 µM (inactive)

Structure (SMILES) | EC50
O=Cc1cc2ccccc2nc1SCc1ccc(Cl)cc1 | 40.2 µM (inactive)
Cc1ccc(NC(=O)c2cc(S(=O)(=O)N(C)C)ccc2N2CCCC2)cc1S(=O)(=O)N(C)C | 32.1 µM (inactive)
O=C(NCCCn1ccnc1)c1nn2c(C(F)(F)F)cc(-c3ccc(Br)cc3)nc2c1Cl | 21.6 µM (inactive)
COc1ccc(/C=N/Nc2cc(C)nc3ccc(Br)cc23)cc1 | > 80 µM (inactive)
C/C(=N\Nc1ncnc2sc(C)c(C)c12)c1ccccn1 | > 80 µM (inactive)
Cc1cc(N2CCN(c3ccc([N+](=O)[O-])c4cccnc34)CC2)c2ccccc2n1 | 21.4 µM (inactive)
Cc1ccccc1OCc1nc(-c2ccc(NC(=O)c3ccc4c(c3)OCO4)cc2)no1 | > 80 µM (inactive)
FC(F)(F)c1nnc2c(Sc3ccc(Cl)cc3)nc3ccccc3n12 | > 80 µM (inactive)
Cc1ccc(-c2nnc(-c3ccc(NC(=O)c4cccs4)cc3)o2)cc1 | 15.9 µM
COc1ccc(N=Cc2c(O)c3ccccc3oc2=O)cc1 | 12.2 µM
CCc1ccc(NC(=O)C(CC)Sc2nc3cc4c(cc3c(=O)n2Cc2ccco2)OCO4)cc1 (stereo not drawn) | > 80 µM (inactive)
O=C(Cn1c2ccc(F)cc2c2nc3n(c(=O)c21)CCS3)Nc1ccc(Cl)cc1F | > 80 µM (inactive)
COc1ccc(-c2csc(C3=C(O)CN(Cc4ccc(Cl)cc4)C3=N)n2)cc1OC | > 80 µM (inactive)
COc1ccccc1N=Cc1c(O)c2ccccc2oc1=O | 16.4 µM
CC(C)CC(NC(=O)c1ccc(Cl)cc1)C(=O)OCC(=O)c1ccc2c(c1)NC(=O)CO2 (stereo not drawn) | > 80 µM (inactive)
O=C(/C=C/c1ccc(Cl)cc1)NC(=S)Nc1ccc(N2CCOCC2)c(Cl)c1 | > 80 µM (inactive)
CCOC(=O)c1nnc(-c2ccccc2)nc1Sc1ccccc1Cl | > 80 µM (inactive)
Cc1cc(NC(=O)c2cc(-c3ccncc3)nc3ccccc23)ccc1Br | 27.8 µM (inactive)
Cc1ccc(-c2nn(CC(=O)NCc3cc(-c4nn(C)c(=O)c5ccccc45)ccc3C)c(=O)c3ccccc23)cc1 | > 80 µM (inactive)
CC(C)N(C(=O)[C@H]1C[C@H](CC(=O)NCC23CC4CC(CC(C4)C2)C3)C(=O)N2CCc3c([nH]c4ccc(Cl)cc34)[C@]12C)C(C)C | > 80 µM (inactive)
Cc1ccc(-n2nc3cc(C)c(NC(=S)NC(=O)/C=C/c4ccco4)cc3n2)cc1 | 35.9 µM (inactive)
